Results published in patent US9133157B2, “HIV protease inhibitors” (Merck Canada Inc., priority 2011, dated 2015).

Biological target: WT HIV-1 protease (Human immunodeficiency virus type 1 group M subtype B (isolate HXB2) (HIV-1), UniProt P04585)
Experiment: Assay for inhibition of microbial expressed HIV protease (Procedure A, peptide substrate, HPLC fluorescence detection)
Format: biochemical
Details: WT HIV-1 protease 10 pM, substrate 400 micromolar, pH 5.5, 30 min preincubation, 1 hour at 30° C.; read-out: Enzyme inhibition IC50
Summary of the method: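 E. coli-expressed enzyme preincubated 30 min at room temperature with compound in 50 mM sodium acetate pH 5.5, 100 mM NaCl, 0.1% BSA. Reaction ran 1 h at 30° C with 400 micromolar Val-Ser-Gln-Asn-(betanaphthyl)Ala-Pro-Ile-Val substrate and 10 picomolar protease. After phosphoric acid quench, product was measured by C18 HPLC with fluorescence (ex 270/em 330 nm).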

SMILES | IC50
COC(=O)N[C@H](C(=O)N[C@H](c1ccc([C@@H](CO)N(CCC(F)(F)F)S(=O)(=O)c2ccc(N)cc2)s1)C(F)(F)F)C(c1ccccc1)c1ccccc1 [Example 85, N-[(1S)-1-{5-[(1R)-1-{[(4-aminophenyl)sulfonyl](3,3,3-trifluoropropyl)amino}-2-hydroxyethyl]thiophen-2-yl}-2,2,2-trifluoroethyl]-Nα-(methoxycarbonyl)-β-phenyl-L-phenylalaninamide] | 0.33 nM
COC(=O)N[C@H](C(=O)N[C@H](c1ccc([C@@H](CO)N(CCC2CC2)S(=O)(=O)c2ccc(N)cc2)s1)C(F)(F)F)C(c1ccccc1)c1ccccc1 [Example 86] | 0.34 nM
COC(=O)N[C@H](C(=O)N[C@H](c1ccc([C@@H](CO)NS(=O)(=O)c2ccc(N)cc2)s1)C(F)(F)F)C(c1ccccc1)c1ccccc1 [Example 87, N-[(1S)-1-{5-[(1R)-1-{[(4-aminophenyl)sulfonyl]amino}-2-hydroxyethyl]thiophen-2-yl}-2,2,2-trifluoroethyl]-Nα-(methoxycarbonyl)-β-phenyl-L-phenylalaninamide] | 194 nM
CCCCN([C@H](CO)c1ccc([C@@H](NC(=O)[C@@H](NC(=O)OC)C(c2ccccc2)c2ccccc2)C(F)(F)F)s1)S(=O)(=O)c1ccc(N)cc1 [Example 88, N-[(1S)-1-{5-[(1R)-1-{[(4-aminophenyl)sulfonyl](butyl)amino}-2-hydroxyethyl]thiophen-2-yl}-2,2,2-trifluoroethyl]-Nα-(methoxycarbonyl)-β-phenyl-L-phenylalaninamide] | 0.33 nM
COC(=O)N[C@H](C(=O)N[C@H](c1ccc([C@@H](CO)N(CCc2ccccc2)S(=O)(=O)c2ccc(N)cc2)s1)C(F)(F)F)C(c1ccccc1)c1ccccc1 [Example 89, N-[(1S)-1-{5-[(1R)-1-{[(4-aminophenyl)sulfonyl](2-phenylethyl)amino}-2-hydroxyethyl]thiophen-2-yl}-2,2,2-trifluoroethyl]-Nα-(methoxycarbonyl)-β-phenyl-L-phenylalaninamide] | 2.6 nM
COC(=O)N[C@H](C(=O)N[C@H](c1ccc([C@@H](CO)N(CCC(C)(C)C)S(=O)(=O)c2ccc(-c3cnco3)cc2)s1)C(F)(F)F)C(c1ccccc1)c1ccccc1 [Example 90, N-[(1S)-1-(5-{(1R)-1-[(3,3-dimethylbutyl){[4-(1,3-oxazol-5-yl)phenyl]sulfonyl}amino]-2-hydroxyethyl}thiophen-2-yl)-2,2,2-trifluoroethyl]-Nα-(methoxycarbonyl)43-phenyl-L-phenylalaninamide] | 25.9 nM
COC(=O)N[C@H](C(=O)N[C@H](c1ccc([C@@H](CO)N(CCC(C)(C)C)S(=O)(=O)c2ccc3scnc3c2)s1)C(F)(F)F)C(c1ccccc1)c1ccccc1 [Example 91, N-[(1S)-1-(5-{(1R)-1-[(1,3-benzothiazol-5-ylsulfonyl)(3,3-dimethylbutyl)amino]-2-hydroxyethyl}thiophen-2-yl)-2,2,2-trifluoroethyl]-Nα-(methoxycarbonyl)-β-phenyl-L-phenylalaninamide] | 2.9 nM
COC(=O)N[C@H](C(=O)N[C@H](c1ccc([C@@H](CO)N(CCC(C)(C)C)S(=O)(=O)c2ccc(-c3ccn(C)n3)cc2)s1)C(F)(F)F)C(c1ccccc1)c1ccccc1 [Example 92] | 66.6 nM
COC(=O)N[C@H](C(=O)N[C@H](c1ccc([C@@H](CO)N(CCC(C)(C)C)S(=O)(=O)c2ccc3[nH]ncc3c2)s1)C(F)(F)F)C(c1ccccc1)c1ccccc1 [Example 93, N-[(1S)-1-(5-{(1R)-1-[(3,3-dimethylbutyl)(1H-indazol-5-ylsulfonyl)amino]-2-hydroxyethyl}thiophen-2-yl)-2,2,2-trifluoroethyl]-Nα-(methoxycarbonyl)-β-phenyl-L-phenylalaninamide] | 0.31 nM
COC(=O)N[C@H](C(=O)N[C@H](c1ccc([C@@H](CO)N(CCC(C)(C)C)S(=O)(=O)c2ccc3cc[nH]c3c2)s1)C(F)(F)F)C(c1ccccc1)c1ccccc1 [Example 94, N-[(1S)-1-(5-{(1R)-1-[(3,3-dimethylbutyl)(1H-indol-6-ylsulfonyl)amino]-2-hydroxyethyl}thiophen-2-yl)-2,2,2-trifluoroethyl]-Nα-(methoxycarbonyl)-β-phenyl-L-phenylalaninamide] | 0.09 nM
COC(=O)N[C@H](C(=O)N[C@H](c1ccc([C@@H](CO)N(CCC(C)(C)C)S(=O)(=O)c2cc3ccccc3s2)s1)C(F)(F)F)C(c1ccccc1)c1ccccc1 [Example 95, N-[(1S)-1-(5-{(1R)-1-[(1-benzothiophen-2-ylsulfonyl)(3,3-dimethylbutyl)amino]-2-hydroxyethyl}thiophen-2-yl)-2,2,2-trifluoroethyl]-Nα-(methoxycarbonyl)-β-phenyl-L-phenylalaninamide] | 6.95 nM
COC(=O)N[C@H](C(=O)N[C@H](c1ccc([C@@H](CO)N(CCC(C)(C)C)S(=O)(=O)c2ccc3ocnc3c2)s1)C(F)(F)F)C(c1ccccc1)c1ccccc1 [Example 96, N-[(1S)-1-(5-{(1R)-1-[(1,3-benzoxazol-5-ylsulfonyl)(3,3-dimethylbutyl)amino]-2-hydroxyethyl}thiophen-2-yl)-2,2,2-trifluoroethyl]-Nα-(methoxycarbonyl)-β-phenyl-L-phenylalaninamide] | 1.95 nM
COC(=O)N[C@H](C(=O)N[C@H](c1ccc([C@@H](CO)N(CCC(C)(C)C)S(=O)(=O)c2ccc(N)c(F)c2)s1)C(F)(F)F)C(c1ccccc1)c1ccccc1 [Example 97, N-[(1S)-1-{5-[(1R)-1-{[(4-amino-3-fluorophenyl)sulfonyl](3,3-dimethylbutyl)amino}-2-hydroxyethyl]thiophen-2-yl}-2,2,2-trifluoroethyl]-Nα-(methoxycarbonyl)-β-phenyl-L-phenylalaninamide] | 1.23 nM
COC(=O)N[C@H](C(=O)N[C@H](c1ccc([C@@H](CO)N(CCC(C)(C)C)S(=O)(=O)c2ccc(N)cc2F)s1)C(F)(F)F)C(c1ccccc1)c1ccccc1 [Example 98, N-[(1S)-1-{5-[(1R)-1-{[(4-amino-2-fluorophenyl)sulfonyl](3,3-dimethylbutyl)amino}-2-hydroxyethyl]thiophen-2-yl}-2,2,2-trifluoroethyl]-Nα-(methoxycarbonyl)-β-phenyl-L-phenylalaninamide] | 0.44 nM
COC(=O)N[C@H](C(=O)N[C@H](c1ccc([C@@H](CO)N(CCC(C)(C)C)S(=O)(=O)c2cn3ccnc3cn2)s1)C(F)(F)F)C(c1ccccc1)c1ccccc1 [Example 99, N-[(1S)-1-(5-{(1R)-1-[(3,3-dimethylbutyl)(imidazo[1,2-a]pyrazin-6-ylsulfonyl)amino]-2-hydroxyethyl}thiophen-2-yl)-2,2,2-trifluoroethyl]-Nα-(methoxycarbonyl)-β-phenyl-L-phenylalaninamide] | 3.39 nM
COC(=O)N[C@H](C(=O)N[C@H](c1ccc([C@@H](CO)N(CCC(C)(C)C)S(=O)(=O)c2ccc3ncsc3c2)s1)C(F)(F)F)C(c1ccccc1)c1ccccc1 [Example 100, N-[(1S)-1-(5-{(1R)-1-[(1,3-benzothiazol-6-ylsulfonyl)(3,3-dimethylbutyl)amino]-2-hydroxyethyl}thiophen-2-yl)-2,2,2-trifluoroethyl]-Nα-(methoxycarbonyl)-β-phenyl-L-phenylalaninamide] | 0.9 nM
COC(=O)N[C@H](C(=O)N[C@H](c1ccc([C@@H](CO)N(CCC(C)(C)C)S(=O)(=O)c2ccc3nn[nH]c3c2)s1)C(F)(F)F)C(c1ccccc1)c1ccccc1 [Example 101, N-[(1S)-1-(5-{(1R)-1-[(1H-benzotriazol-6-ylsulfonyl)(3,3-dimethylbutyl)amino]-2-hydroxyethyl}thiophen-2-yl)-2,2,2-trifluoroethyl]-Nα-(methoxycarbonyl)-β-phenyl-L-phenylalaninamide] | 0.84 nM
COC(=O)N[C@H](C(=O)N[C@H](c1ccc([C@@H](CO)N(CCC(C)(C)C)S(=O)(=O)c2ccc3cn[nH]c3c2)s1)C(F)(F)F)C(c1ccccc1)c1ccccc1 [Example 102, N-[(1S)-1-(5-{(1R)-1-[(3,3-dimethylbutyl)(1H-indazol-6-ylsulfonyl)amino]-2-hydroxyethyl}thiophen-2-yl)-2,2,2-trifluoroethyl]-Nα-(methoxycarbonyl)-β-phenyl-L-phenylalaninamide] | 0.63 nM
COC(=O)N[C@H](C(=O)N[C@H](c1ccc([C@@H](CO)N(CCC(C)(C)C)S(=O)(=O)c2ccc3[nH]ccc3c2)s1)C(F)(F)F)C(c1ccccc1)c1ccccc1 [Example 103, N-[(1S)-1-(5-{(1R)-1-[(3,3-dimethylbutyl)(1H-indol-5-ylsulfonyl)amino]-2-hydroxyethyl}thiophen-2-yl)-2,2,2-trifluoroethyl]-Nα-(methoxycarbonyl)-β-phenyl-L-phenylalaninamide] | 6.14 nM
COC(=O)N[C@H](C(=O)N[C@H](c1ccc([C@@H](CO)N(CCC(F)(F)F)S(=O)(=O)c2ccc3ncsc3c2)s1)C(F)(F)F)C(c1ccccc1)c1ccccc1 [Example 104, N-[(1S)-1-(5-{(1R)-1-[(1,3-benzothiazol-6-ylsulfonyl)(3,3,3-trifluoropropyl)amino]-2-hydroxyethyl}thiophen-2-yl)-2,2,2-trifluoroethyl]-Nα-(methoxycarbonyl)-β-phenyl-L-phenylalaninamide] | 0.85 nM
COC(=O)N[C@H](C(=O)N[C@H](c1ccc([C@@H](CO)N(CCCC(F)(F)F)S(=O)(=O)c2ccc3ncsc3c2)s1)C(F)(F)F)C(c1ccccc1)c1ccccc1 [Example 105, N-[(1S)-1-(5-[(1R)-1-[(1,3-benzothiazol-6-ylsulfonyl)(4,4,4-trifluorobutyl)amino]-2-hydroxyethyl}thiophen-2-yl)-2,2,2-trifluoroethyl]-Nα-(methoxycarbonyl)-β-phenyl-L-phenylalaninamide] | 1.77 nM
